Laboratory results reported in ChEMBL document CHEMBL3232923, “Illudins C2 and C3 stimulate lipolysis in 3T3-L1 adipocytes and suppress adipogenesis in 3T3-L1 preadipocytes” (J Nat Prod, 2014).
Calls of active or inactive are those of the source. The rule behind the calls is not given here.

Columns and labels:
[1] = Reduction of […] mRNA expression in mouse 3T3L1 cells after 24 hrs by RT-PCR analysis; type: functional, cell-based; conditions: 3T3-L1
3T3-L1 [2] = assay: Inhibition of mouse 3T3L1 cell differentiation assessed as reduction in intracellular lipid accumulation after 8 days by Oil Red O staining method; type: functional, cell-based
3T3-L1 [3] = assay: Stimulation of lipolysis in mouse 3T3L1 cells at 10 uM after 48 hrs by glycerol release assay; type: functional, cell-based
3T3-L1 [4] = assay: Reduction of HSL protein level in mouse 3T3L1 cells at 10 uM after 24 to 48 hrs by immunoblotting; type: functional, cell-based
3T3-L1 [5] = assay: Induction of PKA-mediated HSL phosphorylation at S660 in mouse 3T3L1 cells at 10 uM after 24 to 48 hrs by immunoblotting; type: cell-based
3T3-L1 [6] = assay: Reduction of […] protein level in mouse 3T3L1 cells at 10 uM after 24 to 48 hrs by immunoblotting; type: functional, cell-based
3T3-L1 [7] = assay: Stimulation of lipolysis in mouse 3T3L1 cells after 48 hrs by glycerol release assay in presence of ERK inhibitor PD98059; type: functional, cell-based
[8] = Reduction of perilipin mRNA expression in mouse 3T3L1 cells after 24 hrs by RT-PCR analysis; type: functional, cell-based; conditions: 3T3-L1
3T3-L1 [9] = assay: Inhibition of mouse 3T3L1 cell differentiation assessed as reduction in EBPalpha gene expression after 2 days by RT-PCR analysis; type: functional, cell-based
3T3-L1 [10] = assay: Stimulation of lipolysis in mouse 3T3L1 cells after 48 hrs by glycerol release assay in presence of p38 MAPK inhibitor SB203580; type: functional, cell-based
[11] = Reduction of HSL mRNA expression in mouse 3T3L1 cells at 1 to 10 uM after 24 hrs by RT-PCR analysis; type: functional, cell-based; conditions: 3T3-L1
3T3-L1 [12] = assay: Induction of PKA-mediated HSL phosphorylation at S563 in mouse 3T3L1 cells at 10 uM after 24 to 48 hrs by immunoblotting; type: cell-based
3T3-L1 [13] = assay: Inhibition of mouse 3T3L1 cell differentiation assessed as reduction in PPARgamma gene expression after 2 days by RT-PCR analysis; type: functional, cell-based
3T3-L1 [14] = assay: Stimulation of lipolysis in mouse 3T3L1 cells after 48 hrs by glycerol release assay in presence of JNK inhibitor SP600125; type: functional, cell-based
[15] = Reduction of […] mRNA expression in mouse 3T3L1 cells at 1 to 10 uM after 24 hrs by […]; type: functional, cell-based; conditions: 3T3-L1
3T3-L1 [16] = assay: Inhibition of mouse 3T3L1 cell differentiation assessed as reduction in EBPalpha protein level after 8 days by immunoblotting; type: functional, cell-based
3T3-L1 [17] = assay: Stimulation of lipolysis in mouse 3T3L1 cells after 48 hrs by glycerol release assay; type: functional, cell-based
3T3-L1 [18] = assay: Stimulation of lipolysis in mouse 3T3L1 cells after 48 hrs by glycerol release assay in presence of PKA inhibitor H89; type: functional, cell-based
3T3-L1 [19] = assay: Inhibition of mouse 3T3L1 cell differentiation assessed as reduction in PPARgamma protein level after 8 days by immunoblotting; type: functional, cell-based
[20] = Cytotoxicity against mouse 3T3L1 cells at 1 to 10 uM after 48 hrs by MTT assay; type: cell-based; conditions: 3t3-l1, 48 h
3T3-L1 [21] = assay: Reduction of perilipin protein level in mouse 3T3L1 cells at 10 uM after 24 to 48 hrs by immunoblotting; type: functional, cell-based
3T3-L1 [22] = assay: Induction of AMPK-mediated HSL phosphorylation at S565 in mouse 3T3L1 cells at 10 uM after 24 to 48 hrs by immunoblotting; type: cell-based
3T3-L1 [23] = assay: Reduction of lipid content in mature mouse 3T3L1 cells after 7 days by Oil Red O staining method; type: functional, cell-based
3T3-L1 [24] = assay: Stimulation of lipolysis in mouse 3T3L1 cells at 0.25 mM after 48 hrs by glycerol release assay; type: functional, cell-based

| SMILES | Activity [1] | inhibition (3T3-L1 [2]) | Activity (3T3-L1 [3]) | Activity (3T3-L1 [4]) | Activity (3T3-L1 [5]) | Activity (3T3-L1 [6]) | Activity (3T3-L1 [7]) | Activity [8] | inhibition (3T3-L1 [9]) | Activity (3T3-L1 [10]) | Activity [11] | Activity (3T3-L1 [12]) | inhibition (3T3-L1 [13]) | Activity (3T3-L1 [14]) | Activity [15] | inhibition (3T3-L1 [16]) | Activity (3T3-L1 [17]) | Activity (3T3-L1 [18]) | inhibition (3T3-L1 [19]) | Activity [20] | other results |
| --- | --- | --- | --- | --- | --- | --- | --- | --- | --- | --- | --- | --- | --- | --- | --- | --- | --- | --- | --- | --- | --- |
| C=C1C(=O)C2=C(C[C@@](C)(CO)C2)[C@](C)(O)C12CC2 | Dose-dependent effect | Dose-dependent effect | Active | Active | Active | Active | inactive | Dose-dependent effect | Active | Active | Active | Active | Active | Active | Active | Dose-dependent effect | Dose-dependent effect | inactive | Dose-dependent effect | Non-toxic | Activity (3T3-L1 [21]): Active; Activity (3T3-L1 [22]): inactive; Activity (3T3-L1 [23]): Dose-dependent effect |
| CC(C)NCC(O)c1ccc(O)c(O)c1 (stereo not drawn) |  |  | Active |  |  |  |  |  |  |  |  |  |  |  |  |  |  |  |  |  |  |
| C=C1C(=O)C2=C(C[C@](C)(CO)C2)[C@](C)(O)C12CC2 | Dose-dependent effect | Dose-dependent effect | Active | Active | Active | Active | inactive | Dose-dependent effect | Active | Active | Active | Active | Active | Active | Active | Dose-dependent effect | Dose-dependent effect | inactive | Dose-dependent effect | Non-toxic | Activity (3T3-L1 [21]): Active; Activity (3T3-L1 [22]): inactive; Activity (3T3-L1 [23]): Dose-dependent effect |
| CC(C)Cn1c(=O)n(C)c(=O)c2nc[nH]c21 |  |  |  |  |  |  |  |  |  |  |  |  |  |  |  |  |  |  |  |  | Activity (3T3-L1 [24]): Active |
